# From patent US6737383B1, “Herbicidal oxadiazolidines” (priority 1999, dated 2004)
# How the values were obtained:
# duck salad = experiment: Test B flood test duck salad; format: in vivo, Heteranthera limosa
# Procedure, shortened: (§1)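 Plants were grown to the 2-leaf stage before treatment with test chemical, then held in a greenhouse for twelve to sixteen days. Injury was visually rated against untreated controls on a 0–10 scale, where 0 is no effect and 10 is complete control.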
# bedstraw = experiment: Test B pre/postemergence bedstraw; format: in vivo, Galium aparine
# Procedure, shortened: (§2)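 Test chemicals in a non-phytotoxic solvent mixture with surfactant were sprayed preemergence onto planted seeds and postemergence onto plants 2 to 18 cm tall (1- to 4-leaf stage). After twelve to sixteen days in a greenhouse, injury was visually rated against untreated controls from 0 (no effect) to 10 (complete control).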
# blackgrass = experiment: Test B pre/postemergence blackgrass; format: in vivo, Alopecurus myosuroides
# Procedure, shortened: as §2
# morningglory = experiment: Test B pre/postemergence morningglory; format: in vivo, Ipomoea hederacea; conditions: for Morningglory plant response rating: scale of 0 to 10 where 0 is no effect and 10 is complete control
# Procedure, shortened: as §2
# smallflower flatsedge = experiment: Test B flood test smallflower flatsedge; format: in vivo, Cyperus difformis
# Procedure, shortened: as §1
# surinam grass = experiment: Test B pre/postemergence surinam grass; format: in vivo, Brachiaria decumbens
# Procedure, shortened: as §2
# corn = experiment: Test B pre/postemergence corn; format: in vivo, Zea mays; conditions: for Corn plant response rating: scale of 0 to 10 where 0 is no effect and 10 is complete control
# Procedure, shortened: as §2
# giant foxtail = experiment: Test B pre/postemergence giant foxtail; format: in vivo, Setaria faberii; conditions: for Giant foxtail plant response rating: scale of 0 to 10 where 0 is no effect and 10 is complete control
# Procedure, shortened: as §2
# crabgrass = experiment: Test B pre/postemergence crabgrass; format: in vivo, Digitaria sanguinalis; conditions: for Crabgrass plant response rating: scale of 0 to 10 where 0 is no effect and 10 is complete control
# Procedure, shortened: as §2
# purple nutsedge = experiment: Test B pre/postemergence purple nutsedge; format: in vivo, Cyperus rotundus; conditions: for Nutsedge plant response rating: scale of 0 to 10 where 0 is no effect and 10 is complete control
# Procedure, shortened: as §2
# cocklebur = experiment: Test B pre/postemergence cocklebur; format: in vivo, Xanthium strumarium; conditions: for Cocklebur plant response rating: scale of 0 to 10 where 0 is no effect and 10 is complete control
# Procedure, shortened: as §2
# velvetleaf = experiment: Test B pre/postemergence velvetleaf; format: in vivo, Abutilon theophrasti; conditions: for Velvetleaf plant response rating: scale of 0 to 10 where 0 is no effect and 10 is complete control
# Procedure, shortened: as §2
# sugar beet = experiment: Test B pre/postemergence sugar beet; format: in vivo, Beta vulgaris; conditions: for Sugarbeets plant response rating: scale of 0 to 10 where 0 is no effect and 10 is complete control
# Procedure, shortened: as §2
# bamyardgrass = experiment: Test B flood test barnyardgrass; format: in vivo, Echinochloa crus-galli
# Procedure, shortened: as §1
# wild oat = experiment: Test B pre/postemergence wild oat; format: in vivo, Avena fatua; conditions: for Wild oats plant response rating: scale of 0 to 10 where 0 is no effect and 10 is complete control
# Procedure, shortened: as §2
# pigweed = experiment: Test B pre/postemergence pigweed; format: in vivo, Amaranthus retroflexus; conditions: for Redroot pigweed plant response rating: scale of 0 to 10 where 0 is no effect and 10 is complete control
# Procedure, shortened: as §2
# wheat = experiment: Test B pre/postemergence wheat; format: in vivo, Triticum aestivum; conditions: for Wheat plant response rating: scale of 0 to 10 where 0 is no effect and 10 is complete control
# Procedure, shortened: as §2
# rape = experiment: Test B pre/postemergence rape; format: in vivo, Brassica napus; conditions: for Rape plant response rating: scale of 0 to 10 where 0 is no effect and 10 is complete control
# Procedure, shortened: as §2
# rice = experiment: Test B flood test rice; format: in vivo, Oryza sativa
# Procedure, shortened: as §1
# soybean = experiment: Test B pre/postemergence soybean; format: in vivo, Glycine max; conditions: for Soybean plant response rating: scale of 0 to 10 where 0 is no effect and 10 is complete control
# Procedure, shortened: as §2
# [1] = Postemergence (flood test), Rate 125 g/ha, scale 0 to 10, 0 is no effect, 10 is complete control
# [2] = Rate 500 g/ha, listed under Postemergence (flood test species), scale 0 to 10, 0 no effect, 10 complete control
# [3] = Postemergence, Rate 125 g/ha, scale 0 to 10, 0 is no effect, 10 is complete control
# [4] = Preemergence, Rate 62 g/ha, scale 0 to 10 (0 no effect, 10 complete control)
# [5] = Preemergence, Rate 500 g/ha, scale of 0 to 10 where 0 is no effect and 10 is complete control
# [6] = Rate 62 g/ha, Postemergence, scale of 0 to 10 where 0 is no effect and 10 is complete control
# [7] = Rate 250 g/ha, Postemergence, scale of 0 to 10 where 0 is no effect and 10 is complete control
# [8] = Rate 500 g/ha, Postemergence, scale 0 to 10, 0 no effect, 10 complete control
# [9] = Preemergence, Rate 250 g/ha, scale of 0 to 10 where 0 is no effect and 10 is complete control
compound,measurement,setting,value
CC(C)C(C)n1c(=O)on(C(=O)N(c2ccc(F)cc2F)C(C)C)c1=O (centres unmarked) [Compound 356],"Plant response rating, Ducksalad",duck salad; [1],0
same,"Plant response rating, Ducksalad",duck salad; [2],2
same,"Plant response rating, Bedstraw",bedstraw; [3],0
same,"Plant response rating, Bedstraw",bedstraw; [4],0
same,Bedstraw plant response rating (0 to 10 scale),"bedstraw; Preemergence, Rate 125 g/ha",0
same,Bedstraw plant response rating,bedstraw; [5],9
same,Bedstraw plant response rating,bedstraw; [6],0
same,"Plant response rating, Bedstraw",bedstraw; [7],3
same,"Plant response rating, Bedstraw",bedstraw; [8],3
same,"Plant response rating, Blackgrass",blackgrass; [3],6
same,"Plant response rating, Blackgrass",blackgrass; [4],5
same,Blackgrass plant response rating (0 to 10 scale),"blackgrass; Preemergence, Rate 125 g/ha",6
same,Blackgrass plant response rating,blackgrass; [9],9
same,Blackgrass plant response rating,blackgrass; [5],9
same,Blackgrass plant response rating,blackgrass; [6],3
same,"Plant response rating, Blackgrass",blackgrass; [7],6
same,"Plant response rating, Blackgrass",blackgrass; [8],7
same,"Plant response rating, Morningglory",morningglory; [3],6
same,"Plant response rating, Morningglory",morningglory; [4],0
same,Morningglory plant response rating (0 to 10 scale),"morningglory; Preemergence, Rate 125 g/ha",0
same,Morningglory plant response rating,"morningglory; Preemergence, Rate 250 g/ha",0
same,Morningglory plant response rating,"morningglory; Preemergence, Rate 500 g/ha",0
same,Morningglory plant response rating,"morningglory; Rate 62 g/ha, Postemergence",4
same,"Plant response rating, Morningglory",morningglory; [8],10
same,"Plant response rating, S. Flatsedge",smallflower flatsedge; [1],4
same,"Plant response rating, S. Flatsedge",smallflower flatsedge; [2],7
same,"Plant response rating, B. signalgrass",surinam grass; [3],0
same,"Plant response rating, B. signalgrass",surinam grass; [4],0
same,"B. signalgrass plant response rating (0 to 10 scale, 0 is no effect, 10 is complete control)","surinam grass; Preemergence, Rate 125 g/ha",3
same,B. signalgrass plant response rating,surinam grass; [9],5
same,B. signalgrass plant response rating,surinam grass; [5],5
same,B. signalgrass plant response rating,surinam grass; [6],0
same,"Plant response rating, B. signalgrass",surinam grass; [7],1
same,"Plant response rating, B. signalgrass",surinam grass; [8],1
same,"Plant response rating, Corn",corn; [3],0
same,"Plant response rating, Corn",corn; [4],0
same,Corn plant response rating (0 to 10 scale),"corn; Preemergence, Rate 125 g/ha",0
same,Corn plant response rating,"corn; Preemergence, Rate 250 g/ha",2
same,Corn plant response rating,"corn; Preemergence, Rate 500 g/ha",6
same,Corn plant response rating,"corn; Rate 62 g/ha, Postemergence",0
same,"Plant response rating, Corn",corn; [8],3
same,"Plant response rating, Giant foxtail",giant foxtail; [3],4
same,"Plant response rating, Giant foxtail",giant foxtail; [4],10
same,Giant foxtail plant response rating (0 to 10 scale),"giant foxtail; Preemergence, Rate 125 g/ha",10
same,Giant foxtail plant response rating,"giant foxtail; Preemergence, Rate 250 g/ha",10
same,Giant foxtail plant response rating,"giant foxtail; Preemergence, Rate 500 g/ha",10
same,Giant foxtail plant response rating,"giant foxtail; Rate 62 g/ha, Postemergence",2
same,"Plant response rating, Giant foxtail",giant foxtail; [8],8
same,"Plant response rating, Crabgrass",crabgrass; [3],0
same,"Plant response rating, Crabgrass",crabgrass; [4],7
same,Crabgrass plant response rating (0 to 10 scale),"crabgrass; Preemergence, Rate 125 g/ha",8
same,Crabgrass plant response rating,"crabgrass; Preemergence, Rate 250 g/ha",9
same,Crabgrass plant response rating,"crabgrass; Preemergence, Rate 500 g/ha",10
same,Crabgrass plant response rating,"crabgrass; Rate 62 g/ha, Postemergence",0
same,"Plant response rating, Crabgrass",crabgrass; [8],3
same,"Plant response rating, Nutsedge",purple nutsedge; [3],0
same,"Plant response rating, Nutsedge",purple nutsedge; [4],0
same,Nutsedge plant response rating (0 to 10 scale),"purple nutsedge; Preemergence, Rate 125 g/ha",0
same,Nutsedge plant response rating,"purple nutsedge; Preemergence, Rate 250 g/ha",0
same,Nutsedge plant response rating,"purple nutsedge; Preemergence, Rate 500 g/ha",0
same,Nutsedge plant response rating,"purple nutsedge; Rate 62 g/ha, Postemergence",0
same,"Plant response rating, Nutsedge",purple nutsedge; [8],0
same,"Plant response rating, Cocklebur",cocklebur; [3],0
same,Cocklebur plant response rating (0 to 10 scale),"cocklebur; Preemergence, Rate 125 g/ha",0
same,Cocklebur plant response rating,"cocklebur; Preemergence, Rate 250 g/ha",0
same,Cocklebur plant response rating,"cocklebur; Preemergence, Rate 500 g/ha",0
same,Cocklebur plant response rating,"cocklebur; Rate 62 g/ha, Postemergence",0
same,"Plant response rating, Cocklebur",cocklebur; [8],0
same,"Plant response rating, Velvetleaf",velvetleaf; [3],0
same,"Plant response rating, Velvetleaf",velvetleaf; [4],1
same,Velvetleaf plant response rating (0 to 10 scale),"velvetleaf; Preemergence, Rate 125 g/ha",2
same,Velvetleaf plant response rating,"velvetleaf; Preemergence, Rate 250 g/ha",3
same,Velvetleaf plant response rating,"velvetleaf; Preemergence, Rate 500 g/ha",5
same,Velvetleaf plant response rating,"velvetleaf; Rate 62 g/ha, Postemergence",0
same,"Plant response rating, Velvetleaf",velvetleaf; [8],0
same,"Plant response rating, Sugarbeets",sugar beet; [3],0
same,"Plant response rating, Sugarbeets",sugar beet; [4],0
same,Sugarbeets plant response rating (0 to 10 scale),"sugar beet; Preemergence, Rate 125 g/ha",0
same,Sugarbeets plant response rating,"sugar beet; Preemergence, Rate 250 g/ha",2
same,Sugarbeets plant response rating,"sugar beet; Preemergence, Rate 500 g/ha",5
same,Sugarbeets plant response rating,"sugar beet; Rate 62 g/ha, Postemergence",0
same,"Plant response rating, Sugarbeets",sugar beet; [8],0
same,"Plant response rating, Barnyardgrass",bamyardgrass; [1],0
same,"Plant response rating, Barnyardgrass","bamyardgrass; Rate 250 g/ha, Postemergence (flood test species), scale of 0 to 10 where 0 is no effect and 10 is complete control",7
same,"Plant response rating, Barnyardgrass",bamyardgrass; [2],7
same,"Plant response rating, Wild oats",wild oat; [3],3
same,"Plant response rating, Wild oats",wild oat; [4],5
same,Wild oats plant response rating (0 to 10 scale),"wild oat; Preemergence, Rate 125 g/ha",7
same,Wild oats plant response rating,"wild oat; Preemergence, Rate 250 g/ha",10
same,Wild oats plant response rating,"wild oat; Rate 62 g/ha, Postemergence",2
same,"Plant response rating, Wild oats",wild oat; [8],3
same,"Plant response rating, Redroot pigweed",pigweed; [3],0
same,"Plant response rating, Redroot pigweed",pigweed; [4],0
same,Redroot pigweed plant response rating (0 to 10 scale),"pigweed; Preemergence, Rate 125 g/ha",4
same,Redroot pigweed plant response rating,"pigweed; Preemergence, Rate 250 g/ha",8
same,Redroot pigweed plant response rating,"pigweed; Preemergence, Rate 500 g/ha",10
same,Redroot pigweed plant response rating,"pigweed; Rate 62 g/ha, Postemergence",0
same,"Plant response rating, Redroot pigweed",pigweed; [8],0
same,"Plant response rating, Wheat",wheat; [3],3
same,"Plant response rating, Wheat",wheat; [4],0
same,Wheat plant response rating (0 to 10 scale),"wheat; Preemergence, Rate 125 g/ha",0
same,Wheat plant response rating,"wheat; Preemergence, Rate 250 g/ha",0
same,Wheat plant response rating,"wheat; Preemergence, Rate 500 g/ha",6
same,Wheat plant response rating,"wheat; Rate 62 g/ha, Postemergence",2
same,"Plant response rating, Wheat",wheat; [8],4
same,"Plant response rating, Rape",rape; [3],0
same,"Plant response rating, Rape",rape; [4],0
same,Rape plant response rating (0 to 10 scale),"rape; Preemergence, Rate 125 g/ha",2
same,Rape plant response rating,"rape; Preemergence, Rate 250 g/ha",4
same,Rape plant response rating,"rape; Preemergence, Rate 500 g/ha",5
same,Rape plant response rating,"rape; Rate 62 g/ha, Postemergence",0
same,"Plant response rating, Rape",rape; [8],0
same,"Plant response rating, Rice",rice; [1],0
same,Rice plant response rating,"rice; Rate 62 g/ha, Postemergence (flood test species), scale of 0 to 10 where 0 is no effect and 10 is complete control",0
same,"Plant response rating, Rice",rice; [2],0
same,"Plant response rating, Soybean",soybean; [3],3
same,"Plant response rating, Soybean",soybean; [4],0
same,Soybean plant response rating (0 to 10 scale),"soybean; Preemergence, Rate 125 g/ha",0
same,Soybean plant response rating,"soybean; Preemergence, Rate 250 g/ha",0
same,Soybean plant response rating,"soybean; Preemergence, Rate 500 g/ha",0
same,Soybean plant response rating,"soybean; Rate 62 g/ha, Postemergence",2
same,"Plant response rating, Soybean",soybean; [8],5
